{"source": "paper PMC11620506", "about": "“Inhibition of endocytic uptake of severe acute respiratory syndrome coronavirus 2 and endo-lysosomal acidification by diphenoxylate” (Antimicrobial Agents and Chemotherapy, 2024)", "key": {"[1]": {"tested_on": "SARS-CoV-2 (original wild-type, hCoV-19/Korea/KCDC06/2020)", "assay": "microbe, parasite or virus in culture", "assay_type": "cell-based", "conditions": "for EC50: Severe acute respiratory syndrome coronavirus 2, Vero cells, immunofluorescence images, n = 3, read-out: EC50, half maximal effective concentration to reduce SARS-CoV-2 spike protein expression by 50%"}, "SARS-CoV-2 [2]": {"tested_on": "SARS-CoV-2", "assay_type": "cell-based", "conditions": "20 µM, Vero cells; for nuclei numbers compared to the control: DAPI"}, "in vitro": {"assay": "in vitro", "conditions": "African green monkey", "quoted_text": "Following the method described earlier, Vero cells in 96 wells were treated with threefold serial dilutions of each compound, ranging from 100 µM to 5 nM, both with and without SARS-CoV-2 infection at 0.01 MOI. […] Concurrently, the viability of mock-infected cells was assessed using a 3-(4,5-dimethylthiazol-2-yl)−2,5-diphenyltetrazolium bromide (MTT) assay to determine the 50% cytotoxic concentration (CC50). The selectivity index (SI) is calculated as the ratio of CC50 to EC50."}, "SARS-CoV-2 [3]": {"tested_on": "SARS-CoV-2", "assay_type": "cell-based", "conditions": "Calu-3 cells, day 2"}, "SARS-CoV-2 [4]": {"tested_on": "SARS-CoV-2", "assay_type": "cell-based", "conditions": "Vero cells; 1, 10 and 100 µM; day 1"}, "SARS-CoV-2 [5]": {"tested_on": "SARS-CoV-2", "assay": "Antiviral assay using human tonsil organoids (RT-PCR of supernatants)", "assay_type": "cell-based", "conditions": "day 2"}, "SARS-CoV-2 [6]": {"tested_on": "SARS-CoV-2", "assay_type": "cell-based"}, "[7]": {"tested_on": "endo-lysosomal vesicles of Vero cells", "assay": "Acridine orange staining of endo-lysosomal vesicle pH in Vero cells", "assay_type": "cell-based", "conditions": "10 µM, 1 h at 37°C", "procedure": "To monitor pH changes in endo-lysosomal vesicles, Vero cells (8 × 10^4 cells per 35 mm dish) were treated with either DMSO or 10 µM diphenoxylate for 1 h at 37°C. After washing with PBS, they were stained with acridine orange (8 µg/mL) for an additional 30 min. With excitation at 488 nm, live cell images were scanned at two wide-band emission wavelength ranges: 493–560 nm (green) and 590–720 nm (red). All fluorescent images were obtained using a Zeiss LSM 700 confocal microscope and analyzed with ZEN software (Carl Zeiss, Thornwood, NY, USA).\nFig 4 Deacidification of endo-lysosomal vesicles by diphenoxylate. Vero cells were treated with DMSO as a mock control (upper), or with 10 µM diphenoxylate (lower), at 37°C for 1 h. […] Fluorescence images were acquired after excitation at 488 nm, at two different emission wavelengths: 493–560 nm (green; left) and 590–720 nm (red; middle). The images were merged (right) to distinguish acidic (red) and neutralized cytoplasmic vesicles (green or yellow) based on the red-to-green fluorescence intensity ratio. […]\nFigure S2. […] After excitation at 488 nm, fluorescence images were acquired at two different emission wavelengths: 493-560 nm (green; left) and 590-720 nm (red; middle). The images were merged (right) to distinguish acidic (red) and neutralized cytoplasmic vesicles (green or yellow) based on the red-to-green fluorescence intensity ratio. […]"}, "[8]": {"conditions": "mice"}, "in vivo": {"assay": "in vivo", "conditions": "male, ICR, mouse, iv, 5 mg/kg, T1/2, terminal half-life in plasma, mice, diphenoxylate 5 mg/kg intravenously, analyte in plasma, mean ± SEM, three mice"}, "SARS-CoV-2 [9]": {"tested_on": "SARS-CoV-2", "assay_type": "cell-based", "remark": "listed apart in the source"}, "SARS-CoV-2 [10]": {"tested_on": "SARS-CoV-2", "assay": "Confocal microscopy of viral N protein distribution (endocytic uptake) in Vero cells", "assay_type": "cell-based", "conditions": "10 or 30 µM"}, "SARS-CoV-2 [11]": {"tested_on": "SARS-CoV-2", "assay": "Antiviral activity assay (anti-S immunofluorescence) in Calu-3 cells", "conditions": "Severe acute respiratory syndrome coronavirus 2, Calu-3, 24 h", "source_text": "These mixtures were serially diluted threefold, eight times, in EMEM and used to treat SARS-CoV-2-infected Calu-3 cells (MOI of 0.01). On day 1, cells were immunostained with an anti-S-antibody and its fluorescently labeled secondary antibody to estimate the two fractional EC50s (FEC50s) for each drug combination, as well as their sum (ΣFEC50). The interaction was defined as synergistic when the ΣFEC50 value was less than 0.8 ([27]).\nCalu-3 cells were either mock-infected or infected with SARS-CoV-2 (MOI, 0.1)\n(§1) On Day 1 after treatment, the viral S protein was labeled with its specific antibody for an\nimmunofluorescence assay, while mock-infected cells were incubated with MTT.\n(§2) activity was determined by calculating the percentage inhibition of the S protein level relative\nto that in SARS-CoV-2-infected, DMSO-treated cells (red line).\n(§3) are represented as the mean ± SEM from three independent experiments."}, "SARS-CoV-2 [12]": {"tested_on": "SARS-CoV-2", "assay_type": "in vivo, mice"}, "Calu-3 cells": {"tested_on": "Calu-3 cells", "conditions": "MTT", "quoted_text": "Calu-3 cells. Calu-3 cells were either mock-infected or infected with SARS-CoV-2 (MOI, 0.1)\nas §1\nimmunofluorescence assay, while mock-infected cells were incubated with MTT. Antiviral\nas §2\nto that in SARS-CoV-2-infected, DMSO-treated cells (red line). Cell viability was determined\nby measuring cell metabolic activity using MTT relative to naive cells (black line). All values\nas §3"}, "SARS-CoV-2 [13]": {"tested_on": "SARS-CoV-2", "assay_type": "cell-based", "conditions": "Calu-3 cells; 0.001–100 µM; day 2"}, "[14]": {"conditions": "cited from earlier work"}}, "note": "“Also recorded” adds a separate entry of the source. Like-named read-outs stand apart in the source and are kept apart here."}
{"smiles": "OC(CCN1CCCCC1)(c1ccccc1)c1ccccc1", "note": "[pridinol]", "values": [{"measurement": "EC50", "setting": "[1]", "value": "~96.4", "unit": "µM"}]}
{"smiles": "COC(=O)C1=C(C)NC(C)=C(C(=O)OCCN2CCN(C(c3ccccc3)c3ccccc3)CC2)C1c1cccc([N+](=O)[O-])c1", "note": "(stereo not drawn) [Manidipine, manidipine]", "values": [{"measurement": "SI, selectivity index, ratio of CC50 to EC50", "setting": "[1]", "value": 1.7}, {"measurement": "EC50", "setting": "[1]", "value": "26.8 ± 1.1", "unit": "µM"}, {"measurement": "nuclei numbers compared to the control", "setting": "SARS-CoV-2 [2]", "value": "80%–120%"}, {"measurement": "reduction of S protein expression level", "setting": "SARS-CoV-2 [2]", "value": "over 90%"}, {"measurement": "CC50", "setting": "in vitro", "value": "46.6 ± 0.5", "unit": "µM"}]}
{"smiles": "CCC(CC)COC(=O)[C@H](C)N[P@](=O)(OC[C@H]1O[C@@](C#N)(c2ccc3c(N)ncnn23)[C@H](O)[C@@H]1O)Oc1ccccc1", "note": "[RDV, remdesivir]", "values": [{"measurement": "EC50", "setting": "[1]", "value": "7.6 ± 1.2", "unit": "µM"}, {"measurement": "reduction of viral RNA levels in culture supernatants", "setting": "SARS-CoV-2 [3]; concentration not given", "value": "exceeding four logs"}, {"measurement": "levels of S2 and additional S cleavage products (Western blot)", "setting": "SARS-CoV-2 [4]", "value": "dose-dependently reduced"}, {"measurement": "reduction in viral RNA levels in culture supernatants", "setting": "SARS-CoV-2 [5]; 10 µM", "value": "between one and two logs"}, {"measurement": "viral RNA copy numbers in culture supernatants", "setting": "SARS-CoV-2 [6]", "value": "efficiently suppressed"}, {"measurement": "CC50", "setting": "in vitro", "value": "> 100", "unit": "µM"}]}
{"smiles": "N#CC(CCN1CCC(C(=O)O)(c2ccccc2)CC1)(c1ccccc1)c1ccccc1", "note": "[Difenoxin, difenoxin]", "values": [{"measurement": "EC50", "setting": "[1]", "value": "> 100", "unit": "µM"}, {"measurement": "effect on acidic pH of endo-lysosomal vesicles", "setting": "[7]", "value": "failed to deacidify endo-lysosomes"}, {"measurement": "T1/2, terminal half-life in plasma", "setting": "[8]; diphenoxylate 5 mg/kg intravenously, analyte in plasma, mean ± SEM, three mice", "value": "3.6 ± 0.2", "unit": "h"}, {"measurement": "half-life", "setting": "in vivo", "value": 6.4, "unit": "h"}, {"measurement": "CC50", "setting": "in vitro", "value": "> 100", "unit": "µM"}]}
{"smiles": "CCOC(=O)C1(c2ccccc2)CCN(CCC(C#N)(c2ccccc2)c2ccccc2)CC1", "note": "[Diphenoxylate, diphenoxylate]", "values": [{"measurement": "reduction in plaque numbers", "setting": "SARS-CoV-2 [9]", "value": "approximately two-log reduction; also recorded: substantial reduction; also recorded: not under the post-treatment condition"}, {"measurement": "reduction in plaque numbers", "setting": "SARS-CoV-2 [9]; 20 µM, co-treatment (pre-incu), 30 min preincubation with virus", "value": "substantial reduction"}, {"measurement": "SI, selectivity index, ratio of CC50 to EC50", "setting": "[1]", "value": ">71.4"}, {"measurement": "EC50", "setting": "[1]", "value": "1.4 ± 1.1", "unit": "µM"}, {"measurement": "effect on receptor-mediated endocytosis of SARS-CoV-2 (N protein localisation)", "setting": "SARS-CoV-2 [10]", "value": "inhibits receptor-mediated endocytosis of SARS-CoV-2"}, {"measurement": "effect on acidic pH of endo-lysosomal vesicles", "setting": "[7]", "value": "neutralizes the acidic environment of endo-lysosomal organelles"}, {"measurement": "EC50", "setting": "SARS-CoV-2 [11]", "value": "21.9 ± 2.1", "unit": "µM"}, {"measurement": "decrease of viral RNA levels in culture supernatants", "setting": "SARS-CoV-2 [3]; 10 µM", "value": "one"}, {"measurement": "nuclei numbers compared to the control", "setting": "SARS-CoV-2 [2]", "value": "80%–120%"}, {"measurement": "reduction of S protein expression level", "setting": "SARS-CoV-2 [2]", "value": "over 90%"}, {"measurement": "levels of S2 and additional S cleavage products (Western blot)", "setting": "SARS-CoV-2 [4]", "value": "dose-dependently reduced"}, {"measurement": "fraction converted into difenoxin", "setting": "[8]; within 30 min after intravenous injection, 5 mg/kg", "value": "approximately 90%"}, {"measurement": "reduction in viral RNA levels in culture supernatants", "setting": "SARS-CoV-2 [5]; 100 µM", "value": "between one and two logs"}, {"measurement": "viral RNA copy numbers in culture supernatants", "setting": "SARS-CoV-2 [6]", "value": "efficiently suppressed"}, {"measurement": "reduction of viral RNA copy number in the lungs", "setting": "SARS-CoV-2 [12]; hACE2 transgenic mice, […], on day 3, 10 mg/kg/day", "value": 70, "unit": "%"}, {"measurement": "viral RNA levels in lungs (qRT-PCR, S gene)", "setting": "SARS-CoV-2 [12]; mouse, in vivo, 10 mg/kg/day", "value": "significantly reduced"}, {"measurement": "half-life", "setting": "in vivo", "value": "6.4 ± 0.9", "unit": "h"}, {"measurement": "cytotoxicity at the highest tested concentration", "setting": "Calu-3 cells; 300 µM", "value": "no cytotoxicity"}, {"measurement": "CC50", "setting": "in vitro", "value": "> 100", "unit": "µM"}, {"measurement": "expression of viral proteins S and N (Western blot)", "setting": "SARS-CoV-2 [13]", "value": "suppressed the expression of viral proteins S and N dose dependently"}]}
{"smiles": "Cc1cccc(CN2CCN(C(c3ccccc3)c3ccc(Cl)cc3)CC2)c1", "note": "(stereo not drawn) [Meclizine, meclizine]", "values": [{"measurement": "SI, selectivity index, ratio of CC50 to EC50", "setting": "[1]", "value": 4.2}, {"measurement": "EC50", "setting": "[1]", "value": "21.4 ± 3", "unit": "µM"}, {"measurement": "nuclei numbers compared to the control", "setting": "SARS-CoV-2 [2]", "value": "80%–120%"}, {"measurement": "reduction of S protein expression level", "setting": "SARS-CoV-2 [2]", "value": "over 90%"}, {"measurement": "CC50", "setting": "in vitro", "value": "89.5 ± 4.4", "unit": "µM"}]}
{"smiles": "N=C(N)c1ccc2cc(OC(=O)c3ccc(N=C(N)N)cc3)ccc2c1", "note": "[nafamostat]", "values": [{"measurement": "EC50", "setting": "SARS-CoV-2 [11]", "value": "0.0035 ± 0.0005", "unit": "µM"}, {"measurement": "cytotoxicity at the highest tested concentration", "setting": "Calu-3 cells; 300 nM", "value": "no cytotoxicity"}]}
{"smiles": "Fc1ccc(C(c2ccc(F)cc2)N2CCN(C/C=C/c3ccccc3)CC2)cc1", "note": "[Flunarizine, flunarizine]", "values": [{"measurement": "SI, selectivity index, ratio of CC50 to EC50", "setting": "[1]", "value": 2.4}, {"measurement": "EC50", "setting": "[1]", "value": "12.9 ± 5.7", "unit": "µM"}, {"measurement": "nuclei numbers compared to the control", "setting": "SARS-CoV-2 [2]", "value": "80%–120%"}, {"measurement": "reduction of S protein expression level", "setting": "SARS-CoV-2 [2]", "value": "over 90%"}, {"measurement": "CC50", "setting": "in vitro", "value": "30.6 ± 1.8", "unit": "µM"}]}
{"smiles": "CC(C)C(=O)OC[C@H]1O[C@@H](n2ccc(NO)nc2=O)[C@H](O)[C@@H]1O", "note": "[molnupiravir]", "values": [{"measurement": "viral RNA levels in lungs (qRT-PCR, S gene)", "setting": "SARS-CoV-2 [12]; hACE2 transgenic mice, 50 mg/kg/day oral, BID, […]", "value": "significantly reduced"}]}
{"smiles": "CN(C)c1ccc2cc3ccc(N(C)C)cc3nc2c1", "note": "[acridine orange]", "values": [{"measurement": "pKa", "setting": "[14]", "value": "approximately 9.65"}]}
